Where a name gives a salt, the structure may show the parent alone.
Tests used:
[1] = Pharmacokinetic profile of cannabinoid sulfate esters compared to CBD; details: for Cmax / Tmax / half-life: plasma
Text: The PK profile of certain exemplary cannabinoid sulfate esters, including the half-life (T1/2), maximum plasma concentration (Cmax), and time to reach Cmax (Tmax), is shown compared to CBD in the table below.

intraocular pressure = details: normotensive rabbit; cited from earlier work
[2] = pH 7.4; cited from earlier work

Row | Structure (SMILES) | Cmax [1] [ng/mL] | Tmax [1] [h] | half-life [1] [h] | T1/2 ([1]; half-life) [h] | Cmax ([1]; Cmax, maximum plasma concentration) [ng/mL] | intraocular pressure (intraocular pressure) | increase of aqueous solubility over the parent endocannabinoid [2]
1 | C=C(C)[C@@H]1CCC(C)=C[C@H]1c1c(O)cc(CCCCC)cc1OS(=O)(=O)O [CBD sulfate morpholinium salt, morpholin-4-ium (1′R,2′R)-6-hydroxy-5′-methyl-4-pentyl-2′-(prop-1-en-2-yl)-1′,2′,3′,4′-tetrahydro-[1,1′-biphenyl]-2-yl sulfate] | 10 | 1 | 32.7 | – | – | – | –
2 | C=C(C)[C@@H]1CCC(C)=C[C@H]1c1c(O)cc(CCCCC)cc1OS(=O)(=O)O [CBD sulfate piperazinium salt, piperazin-1-ium (1′R,2′R)-6-hydroxy-5′-methyl-4-pentyl-2′-(prop-1-en-2-yl)-1′,2′,3′,4′-tetrahydro-[1,1′-biphenyl]-2-yl sulfate] | – | 1 | – | 3.0 | 19 | – | –
3 | C=C(C)[C@@H]1CCC(C)=C[C@H]1c1c(O)cc(CCCCC)cc1OS(=O)(=O)[O-].[Na+] [CBD sulfate sodium salt, sodium (1′R,2′R)-6-hydroxy-5′-methyl-4 pentyl-2′-(prop-1-en-2-yl)-1′,2′,3′,4′-tetrahydro-[1,1′-biphenyl]-2-yl sulfate] | 12 | 1 | 2.9 | – | – | – | –
4 | C=C(C)[C@@H]1CCC(C)=C[C@H]1c1c(O)cc(CCCCC)cc1O [CBD, cannabidiol, reference compound] | 4.8 | 0.5 | 3.9 | – | – | – | –
5 | CCCCC/C=C\C/C=C\C/C=C\C/C=C\CCCC(=O)NCCOP(=O)(O)O [phosphate ester pro-drug of anandamide] | – | – | – | – | – | reduced the intraocular pressure | > 16 500 fold
